Patent publication US7312330B2, “Bicycloheteroarylamine compounds as ion channel ligands and uses thereof” (Renovis, Inc., priority 2003, dated 2007)

What was measured:
[1] = biological target: hVR1 (Homo sapiens, UniProt Q8NER1); assay: Calcium imaging assay (Fura2) of VR1 antagonists, proton stimulation; type: cell-based; conditions: HEK 293 cells expressing hVR1; for % Inhibition @ 1 μM: calcium ion influx induced by proton stimulation (pH 5.7); for IC50: calcium ion influx induced by proton stimulation
Summary of the method: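 HEK293 cells expressing capsaicin-insensitive hVR1 were loaded with Fura2 (5 μg/mL, 37 °C, 40 min). Compound was added, then compound plus acid agonist (10 mM citric acid, pH 5.7), with the 340/380 nm ratio read every 4 s for 3 min. Peak-minus-baseline response gave % inhibition and an ID50 from dose-response curves.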

[2] = Pharmacokinetic profile after intravenous and oral administration; type: in vivo; conditions: rat, IV 1 mg/kg, oral 5 mg/kg; for Cmax / Tmax / Vd / bioavailability: male, Sprague-Dawley, plasma
Method: The pharmacokinetic profile of Compound 1 was evaluated following intravenous and oral administration in rats. Sprague-Dawley male rats obtained from Charles River, San Diego, Calif. were acclimated for 24 hours.
Compounds of this invention were formulated at a concentration of 0.5 mg/mL for IV administration at a 1 mg/kg dose and 1 mg/mL for oral administration at a 5 mg/kg dose. All animals were weighed before dosing. The body weight was used to calculate the actual dose for each animal. The intravenous dose was administered through the jugular vein catheter in less than 1 minute. The oral dose volume was 1.5 mL for all PO rats administered through oral lavage.
For IV dosing, blood samples were collected using a pre-heparinized syringe via the carotid artery catheter before dosing and at t=2, 5, 15, 30, 60, 120, 180, 360, and 480 minutes post dosing. For PO dosing, blood samples were collected using a pre-heparinized syringe via the carotid artery catheter before dosing and at t=5, 15, 30, 60, 120, 180, 360, and 480 minutes post dosing. 250 uL of blood was obtained at each time point from each animal. Equal volumes of 0.9% normal saline were replaced to prevent dehydration. The whole blood samples were maintained on ice until centrifugation. Blood samples were centrifuged at 14,000 rpm for 10 minutes at 4° C., and the upper plasma layer was transferred into a clean vial and store at −80° C.

[3] = biological target: T1, HsVR1 (Homo sapiens, UniProt Q8NER1); assay: Two-electrode voltage clamp recording of capsaicin induced VR1 current in Xenopus oocytes; type: cell-based; conditions: 250 nM capsaicin induced current; Xenopus oocytes injected with HsVR1 RNA; read-out: EPHYS IC50
T1 construct: expressed in transfected cells; host or cells: Xenopus oocytes injected with HsVR1 RNA
Method: Xenopus ovaries obtained from NASCO were isolated by enzymatic dissociation using collagenase (Worthington, 2 mg/ml). Oocytes were then individually injected with HsVR1 RNA (0.5 μg/μl). Injected oocytes are stored in standard oocyte incubation solution, ND96, containing 96 mM NaCl, 2 mM KCl, 1 mM MgCl2, 0.3 mM CaCl2 and 50 µg/ml Gentamicin at 16° C. Capsaicin induced VR1 current is observed in oocytes 4-5 days after injection. Eight oocytes are placed in the recording chambers. Each oocyte is impaled by 2 glass electrodes having resistances of 0.5 to 1 MOhm when filled with a 3 M KCl solution. Electrode advancement and oocyte impalement are under software control (OpusXpress 1.1, Axon Instruments). VR1 expression in the oocytes is verified using 250 nM capsaicin. Test solution delivery to the oocytes during the experiment is also under software control. The solutions are prepared in 96 well plates and robotically pipetted into the oocyte recording chambers by an 8 channel pipetter. Oocytes are exposed to several 250 μl applications of 250 nM capsaicin until a stable current amplitude is obtained with each application. A set of 96 well plates containing the test solutions is prepared so that the sequence of solution application to the oocyte is as follows: 250 μls of 250 nM capsaicin is followed by a several minute wash with standard oocyte saline. 1 ml of the test compound is then added at a particular test concentration, followed immediately by 250 μl of the compound at the same concentration plus 250 nM capsaicin. The capsaicin induced VR1 current is recorded in the presence and absence of test compound for each concentration. The standard test concentrations range from 0.3 to 2000 nM. Quantitative measurement of VR1 current block was carried out by calculating the area under the curve described by the inward current. The resulting numbers for capsaicin induced currents in the presence of increasing compound concentration are normalized to the maximum current obtained. These points are then plotted on a logarithmic scale and fitted by a Hill function. The IC50 values for each compound tested were then calculated from the resulting Hill fit. All compounds that inhibited capsaicin induced current greater than 50% were considered positives.

Chain of hVR1 (Q8NER1 whole entry): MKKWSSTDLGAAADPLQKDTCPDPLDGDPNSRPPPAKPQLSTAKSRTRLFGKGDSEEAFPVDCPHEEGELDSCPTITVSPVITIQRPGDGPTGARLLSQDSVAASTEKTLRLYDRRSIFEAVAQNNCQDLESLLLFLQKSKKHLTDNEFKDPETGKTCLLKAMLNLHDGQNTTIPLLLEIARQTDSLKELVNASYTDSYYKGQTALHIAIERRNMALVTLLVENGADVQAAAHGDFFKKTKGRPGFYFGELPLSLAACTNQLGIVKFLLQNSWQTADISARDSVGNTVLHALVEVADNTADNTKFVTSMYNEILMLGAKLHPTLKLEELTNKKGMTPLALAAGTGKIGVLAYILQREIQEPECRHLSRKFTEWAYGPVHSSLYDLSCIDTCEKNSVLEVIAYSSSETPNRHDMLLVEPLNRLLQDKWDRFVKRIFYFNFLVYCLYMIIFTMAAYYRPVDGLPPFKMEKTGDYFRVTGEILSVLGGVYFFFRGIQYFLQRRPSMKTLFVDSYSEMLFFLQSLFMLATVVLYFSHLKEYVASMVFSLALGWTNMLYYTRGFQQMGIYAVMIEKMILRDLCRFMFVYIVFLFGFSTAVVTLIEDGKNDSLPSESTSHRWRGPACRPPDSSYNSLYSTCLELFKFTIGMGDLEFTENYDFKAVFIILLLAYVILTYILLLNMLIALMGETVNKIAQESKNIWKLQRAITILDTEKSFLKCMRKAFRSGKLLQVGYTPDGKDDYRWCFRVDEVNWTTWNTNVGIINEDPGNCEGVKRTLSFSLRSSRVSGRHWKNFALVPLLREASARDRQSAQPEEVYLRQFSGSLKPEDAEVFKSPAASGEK
T1 sequence (Q8NER1 whole entry): as above

| IC50 [1] [nM] | Cmax [2] [ng/mL] | Tmax [2] [h] | Vd [2] [L/kg] | bioavailability [2] [%] | Cls (L/hrKg) [2] [L/hrKg] | T/2 [2] [h] | IC50 [3] [nM] | Structure (SMILES) | % Inhibition @ 1 μM [1] |
| --- | --- | --- | --- | --- | --- | --- | --- | --- | --- |
| 101 to 500 | 1380 | 1.01 | 1.28 | 37 | 0.34 | 2.52 | 101 to 500 | FC(F)(F)c1ccc(Nc2ncnc3c2CCN(c2ncccc2Cl)C3)cc1 [Example 1, 7-(3-Chloropyridin-2-yl)-N-(4-(trifluoromethyl)phenyl)-5,6,7,8-tetrahydropyrido[3,4-d]pyrimidin-4-amine] | ++++ (compound exhibited 76% or greater inhibition of calcium ion influx induced by proton stimulation) |
| 101 to 500 | 156 | 1.67 | 13 | 47.9 | 1.99 | 4.37 | 101 to 500 | CS(=O)(=O)c1cccnc1N1CCc2c(ncnc2Nc2ccc(C(F)(F)F)cc2)C1 [Example 9, [7-(3-Methanesulfonyl-pyridin-2-yl)-5,6,7,8-tetrahydro-pyrido[3,4-d]pyrimidin-4-yl]-(4-trifluoromethyl-phenyl)-amine] | ++++ (compound exhibited 76% or greater inhibition of calcium ion influx induced by proton stimulation) |
| 101 to 500 | – | – | – | – | – | – | 101 to 500 | CS(=O)(=O)c1cccnc1N1CCc2c(ncnc2Nc2ccc(S(=O)(=O)C(F)(F)F)cc2)C1 [Example 23, 7-(3-Methanesulphonylpyridin-2-yl)-N-(4-(trifluoromethylsulphonyl)phenyl)-5,6,7,8-tetrahydropyrido[3,4-d]pyrimidin-4-amine] | ++++ (compound exhibited 76% or greater inhibition of calcium ion influx induced by proton stimulation) |
| – | – | – | – | – | – | – | > 1000 | FC(F)(F)c1ccc(Nc2nccc3c2CCN(c2ncccc2Cl)C3)cc1 [Example 26, 6-(3-Chloropyridin-2-yl)-N-(4-(trifluoromethyl)phenyl)-5,6,7,8-tetrahydro-2,6-naphthyridin-1-amine] | + (compound exhibited 0-25% inhibition of calcium ion influx induced by proton stimulation) |
| < 100 | – | – | – | – | – | – | < 100 | CSc1nc2c(c(Nc3ccc(C(C)(C)C)cc3)n1)CCN(c1ncccc1Cl)C2 [Example 28, N-(4-tert-Butylphenyl)-7-(3-chloropyridin-2-yl)-5,6,7,8-tetrahydro-2-(methylthio)pyrido[3,4-d]pyrimidin-4-amine] | ++++ (compound exhibited 76% or greater inhibition of calcium ion influx induced by proton stimulation) |
| < 100 | – | – | – | – | – | – | < 100 | COc1nc2c(c(Nc3ccc(C(C)(C)C)cc3)n1)CCN(c1ncccc1Cl)C2 [Example 29, N-(4-tert-Butylphenyl)-7-(3-chloropyridin-2-yl)-5,6,7,8-tetrahydro-2-methoxypyrido[3,4-d]pyrimidin-4-amine] | ++++ (compound exhibited 76% or greater inhibition of calcium ion influx induced by proton stimulation) |
| – | – | – | – | – | – | – | 501 to 1000 | FC(F)(F)c1ccc(Nc2nc(NCCN3CCOCC3)nc3c2CCN(c2ncccc2Cl)C3)cc1 [Example 33, 7-(3-Chloropyridin-2-yl)-N^4-(4-(trifluoromethyl)phenyl)-5,6,7,8-tetrahydro-N^2-(2-morpholinoethyl)pyrido[3,4-d]pyrimidine-2,4-diamine] | + (compound exhibited 0-25% inhibition of calcium ion influx induced by proton stimulation) |
| 101 to 500 | – | – | – | – | – | – | 501 to 1000 | CN(C)c1nc2c(c(Nc3ccc(C(F)(F)F)cc3)n1)CCN(c1ncccc1Cl)C2 [Example 34, 7-(3-Chloropyridin-2-yl)-N^4-(4-(trifluoromethyl)phenyl)-5,6,7,8-tetrahydro-N^2N^2-dimethylpyrido[3,4-d]pyrimidine-2,4-diamine] | + (compound exhibited 0-25% inhibition of calcium ion influx induced by proton stimulation) |
| – | – | – | – | – | – | – | 101 to 500 | COCc1nc2c(c(Nc3ccc(C(F)(F)F)cc3)n1)CCN(c1ncccc1Cl)C2 [Example 35, 7-(3-Chloropyridin-2-yl)-N-(4-(trifluoromethyl)phenyl)-5,6,7,8-tetrahydro-2-(methoxymethyl)pyrido[3,4-d]pyrimidin-4-amine] | ++++ (compound exhibited 76% or greater inhibition of calcium ion influx induced by proton stimulation) |
| – | 49.4 | 3.33 | 12.4 | 17.9 | 4.02 | 2.15 | 101 to 500 | N#Cc1nc2c(c(Nc3ccc(C(F)(F)F)cc3)n1)CCN(c1ncccc1Cl)C2 [Example 37, 4-(4-(Trifluoromethyl)phenylamino)-7-(3-chloropyridin-2-yl)-5,6,7,8-tetrahydropyrido[3,4-d]pyrimidine-2-carbonitrile] | ++++ (compound exhibited 76% or greater inhibition of calcium ion influx induced by proton stimulation) |
| 101 to 500 | – | – | – | – | – | – | > 1000 | Clc1cccnc1N1CCc2c(ncnc2NCCc2ccccc2)C1 [Example 39, 7-(3-Chloropyridin-2-yl)-5,6,7,8-tetrahydro-N-phenethylpyrido[3,4-d]pyrimidin-4-amine] | ++++ (compound exhibited 76% or greater inhibition of calcium ion influx induced by proton stimulation) |
| < 100 | – | – | – | – | – | – | < 100 | Cc1ccccc1N1CCc2c(ncnc2Nc2ccc(C(F)(F)F)cc2)C1 [Example 45, 7-(o-Tolyl)-N-(4-(trifluoromethyl)phenyl)-5,6,7,8-tetrahydropyrido[3,4-d]pyrimidin-4-amine] | ++++ (compound exhibited 76% or greater inhibition of calcium ion influx induced by proton stimulation) |
| > 1000 | – | – | – | – | – | – | 501 to 1000 | Cc1cccc(N2CCc3c(ncnc3Nc3ccc(C(F)(F)F)cc3)C2)c1 [Example 46, 7-(m-Tolyl)-N-(4-(trifluoromethyl)phenyl)-5,6,7,8-tetrahydropyrido[3,4-d]pyrimidin-4-amine] | + (compound exhibited 0-25% inhibition of calcium ion influx induced by proton stimulation) |
| 101 to 500 | – | – | – | – | – | – | < 100 | CCOc1nc2c(c(Nc3ccc(C(F)(F)F)cc3)n1)CCN(c1ncccc1Cl)C2 [Example 48, 7-(3-Chloropyridin-2-yl)-2-ethoxy-N-(4-(trifluoromethyl)phenyl)-5,6,7,8-tetrahydropyrido[3,4-d]pyrimidin-4-amine] | ++++ (compound exhibited 76% or greater inhibition of calcium ion influx induced by proton stimulation) |
| 501 to 1000 | – | – | – | – | – | – | 101 to 500 | CCOc1nc2c(c(Nc3ccc(C(F)(F)F)cc3)n1)CCN(c1ncccc1S(C)(=O)=O)C2 [Example 64, 2-Ethoxy-N-(4-(trifluoromethyl)phenyl)-5,6,7,8-tetrahydro-7-(3-(methylsulfonyl)pyridin-2-yl)pyrido[3,4-d]pyrimidin-4-amine] | +++ (compound exhibited 51-75% inhibition of calcium ion influx induced by proton stimulation) |
